Usually IC50 stands for the point on the concentration scale where inhibition reaches its midpoint. Low readings indicate inhibition by little substance, high ones a need for much substance.

Two compounds from PMC7617869, “Molecular glues that inhibit deubiquitylase activity and inflammatory signaling” (Nature Structural & Molecular Biology, 2025) can be followed below.

What all share (format): biochemical
For one assay, the target named is HsBRISCΔLoop (Δ184–208) (Homo sapiens, UniProt P46736+Q15018+Q9NXR7). Put plainly: HsBRISCΔLoop IQF DUB activity assay. On the procedure: (§1) IQF assays were performed in DUB reaction buffer containing 50 mM HEPES–NaOH pH 7.0, 100 mM NaCl, 0.1 mg ml^−1 BSA, 1 mM DTT and 0.03% v/v Brij-35. […] The final concentration of BRISC WT, all BRISC mutants, HsBRISCΔLoop, MmBRISC and DrBRISCΔNΔC was 1 nM. Other enzymes were tested at the following concentrations: 5 nM ARISC (FL), 10 nM CfBRISCΔNΔC, 250 nM AMSH* (ref. [43]), 500 nM USP2 and 1 μM trypsin (Sigma, 9002-07-7). For Michaelis–Menten experiments, 1 nM BRISC with 0–1 μM IQF K63-linked diubiquitin substrate was used. Michaelis–Menten analyses and Lineweaver–Burk plots were calculated using GraphPad Prism (version 9.0).
(§2) To assess enzymatic activity, BRISC complexes were diluted to concentrations between 1 nM and 50 nM. […] Then, 20-μl enzyme reactions were carried out in 384-well black flat-bottom low-flange plates (Corning, 35373). DUB activity was measured using IQF K63-linked diubiquitin (LifeSensors, DU6303) at 50 nM. Cleaved diubiquitin was monitored by measuring fluorescence intensity (excitation, 544 nm; emission, 575 nm; dichroic mirror, 560 nm). Fluorescence intensity was measured every minute for 30 min at 30 °C. Fluorescence intensity units were plotted against time to generate a linear reaction progress curve, where the initial velocity (V0) corresponds to the gradient of the curve (typically achieved within 15 min). IC50 values were calculated using the GraphPad Prism (version 9.0) built-in dose–response equation for inhibitor concentration versus response (variable slope).

Another assay addresses BRISC BRCC36 R167A+L169A (Homo sapiens, UniProt P46736+Q15018+Q9NXR7, L169A/R167A). Put plainly: BRISC mutant IQF assay: BRCC36 R167A+L169A. To be noted: read-out: Normalised V0. From the text:
Supplement 41594_2025_1517_MOESM5_ESM.xlsx, sheet "Fig. 4c" | column: Normalised V0

A further assay concerns the target BRISC BRCC36 L169W (Homo sapiens, UniProt P46736+Q15018+Q9NXR7, L169W). Put plainly: BRISC mutant IQF assay: BRCC36 L169W. As to the method: as §1, §2
The next assay addresses BRISC BRCC45 R137A+F140A (Homo sapiens, UniProt P46736+Q15018+Q9NXR7, F140A/R137A). Put plainly: BRISC mutant IQF assay: BRCC45 R137A+F140A. On the procedure:
as §1
To assess enzymatic activity, BRISC complexes were diluted to concentrations between 1 nM and 50 nM. […] DUB activity was measured using IQF K63-linked diubiquitin (LifeSensors, DU6303) at 50 nM. Cleaved diubiquitin was monitored by measuring fluorescence intensity (excitation, 544 nm; emission, 575 nm; dichroic mirror, 560 nm). Fluorescence intensity was measured every minute for 30 min at 30 °C. Fluorescence intensity units were plotted against time to generate a linear reaction progress curve, where the initial velocity (V0) corresponds to the gradient of the curve (typically achieved within 15 min). IC50 values were calculated using the GraphPad Prism (version 9.0) built-in dose–response equation for inhibitor concentration versus response (variable slope).

Assay [1] deals with T1, panel of 48 purified DUBs (Homo sapiens, UniProt Q92560).
T1 construct: purchased Ubiquigent (DUBprofiler service)
As to the kind of experiment: DUB selectivity profiling (DUBprofiler, ubiquitin–rhodamine(110)–glycine). To be noted: DUB BAP1; screening concentration 5 μM; 5 µM. As to the method: (§3) Biochemical selectivity profiling (DUBprofiler) was performed by Ubiquigent with a panel of 48 purified DUBs and ubiquitin–rhodamine(110)–glycine as a fluorescent substrate.

Assay [2] addresses T2, panel of 48 purified DUBs (Homo sapiens, UniProt Q93008).
T2 construct: purchased Ubiquigent (DUBprofiler service)
Described as above. The settings on record: DUB USP9X; screening concentration 5 μM; 5 µM. On the procedure:
as §3

Assay [3] concerns the target T3, panel of 48 purified DUBs (Homo sapiens, UniProt P54578).
T3 construct: purchased Ubiquigent (DUBprofiler service)
The description is as above. The settings on record: DUB USP14; screening concentration 5 μM; 5 µM. As to the method: as §3

Assay [4] addresses T4, panel of 48 purified DUBs (Homo sapiens, UniProt Q96DC9).
T4 construct: purchased Ubiquigent (DUBprofiler service)
The assay is described as above. The settings on record: DUB OTUB2; screening concentration 5 μM; 5 µM. As to the method:
as §3

Where [5] appears, read: FX-171-C 0.035 μM, read-out: Normalised V0.

Where “and” joins values, the source holds several entries; their conditions need not be identical. Equal values may be shown once.

T2 sequence (Q93008 whole entry): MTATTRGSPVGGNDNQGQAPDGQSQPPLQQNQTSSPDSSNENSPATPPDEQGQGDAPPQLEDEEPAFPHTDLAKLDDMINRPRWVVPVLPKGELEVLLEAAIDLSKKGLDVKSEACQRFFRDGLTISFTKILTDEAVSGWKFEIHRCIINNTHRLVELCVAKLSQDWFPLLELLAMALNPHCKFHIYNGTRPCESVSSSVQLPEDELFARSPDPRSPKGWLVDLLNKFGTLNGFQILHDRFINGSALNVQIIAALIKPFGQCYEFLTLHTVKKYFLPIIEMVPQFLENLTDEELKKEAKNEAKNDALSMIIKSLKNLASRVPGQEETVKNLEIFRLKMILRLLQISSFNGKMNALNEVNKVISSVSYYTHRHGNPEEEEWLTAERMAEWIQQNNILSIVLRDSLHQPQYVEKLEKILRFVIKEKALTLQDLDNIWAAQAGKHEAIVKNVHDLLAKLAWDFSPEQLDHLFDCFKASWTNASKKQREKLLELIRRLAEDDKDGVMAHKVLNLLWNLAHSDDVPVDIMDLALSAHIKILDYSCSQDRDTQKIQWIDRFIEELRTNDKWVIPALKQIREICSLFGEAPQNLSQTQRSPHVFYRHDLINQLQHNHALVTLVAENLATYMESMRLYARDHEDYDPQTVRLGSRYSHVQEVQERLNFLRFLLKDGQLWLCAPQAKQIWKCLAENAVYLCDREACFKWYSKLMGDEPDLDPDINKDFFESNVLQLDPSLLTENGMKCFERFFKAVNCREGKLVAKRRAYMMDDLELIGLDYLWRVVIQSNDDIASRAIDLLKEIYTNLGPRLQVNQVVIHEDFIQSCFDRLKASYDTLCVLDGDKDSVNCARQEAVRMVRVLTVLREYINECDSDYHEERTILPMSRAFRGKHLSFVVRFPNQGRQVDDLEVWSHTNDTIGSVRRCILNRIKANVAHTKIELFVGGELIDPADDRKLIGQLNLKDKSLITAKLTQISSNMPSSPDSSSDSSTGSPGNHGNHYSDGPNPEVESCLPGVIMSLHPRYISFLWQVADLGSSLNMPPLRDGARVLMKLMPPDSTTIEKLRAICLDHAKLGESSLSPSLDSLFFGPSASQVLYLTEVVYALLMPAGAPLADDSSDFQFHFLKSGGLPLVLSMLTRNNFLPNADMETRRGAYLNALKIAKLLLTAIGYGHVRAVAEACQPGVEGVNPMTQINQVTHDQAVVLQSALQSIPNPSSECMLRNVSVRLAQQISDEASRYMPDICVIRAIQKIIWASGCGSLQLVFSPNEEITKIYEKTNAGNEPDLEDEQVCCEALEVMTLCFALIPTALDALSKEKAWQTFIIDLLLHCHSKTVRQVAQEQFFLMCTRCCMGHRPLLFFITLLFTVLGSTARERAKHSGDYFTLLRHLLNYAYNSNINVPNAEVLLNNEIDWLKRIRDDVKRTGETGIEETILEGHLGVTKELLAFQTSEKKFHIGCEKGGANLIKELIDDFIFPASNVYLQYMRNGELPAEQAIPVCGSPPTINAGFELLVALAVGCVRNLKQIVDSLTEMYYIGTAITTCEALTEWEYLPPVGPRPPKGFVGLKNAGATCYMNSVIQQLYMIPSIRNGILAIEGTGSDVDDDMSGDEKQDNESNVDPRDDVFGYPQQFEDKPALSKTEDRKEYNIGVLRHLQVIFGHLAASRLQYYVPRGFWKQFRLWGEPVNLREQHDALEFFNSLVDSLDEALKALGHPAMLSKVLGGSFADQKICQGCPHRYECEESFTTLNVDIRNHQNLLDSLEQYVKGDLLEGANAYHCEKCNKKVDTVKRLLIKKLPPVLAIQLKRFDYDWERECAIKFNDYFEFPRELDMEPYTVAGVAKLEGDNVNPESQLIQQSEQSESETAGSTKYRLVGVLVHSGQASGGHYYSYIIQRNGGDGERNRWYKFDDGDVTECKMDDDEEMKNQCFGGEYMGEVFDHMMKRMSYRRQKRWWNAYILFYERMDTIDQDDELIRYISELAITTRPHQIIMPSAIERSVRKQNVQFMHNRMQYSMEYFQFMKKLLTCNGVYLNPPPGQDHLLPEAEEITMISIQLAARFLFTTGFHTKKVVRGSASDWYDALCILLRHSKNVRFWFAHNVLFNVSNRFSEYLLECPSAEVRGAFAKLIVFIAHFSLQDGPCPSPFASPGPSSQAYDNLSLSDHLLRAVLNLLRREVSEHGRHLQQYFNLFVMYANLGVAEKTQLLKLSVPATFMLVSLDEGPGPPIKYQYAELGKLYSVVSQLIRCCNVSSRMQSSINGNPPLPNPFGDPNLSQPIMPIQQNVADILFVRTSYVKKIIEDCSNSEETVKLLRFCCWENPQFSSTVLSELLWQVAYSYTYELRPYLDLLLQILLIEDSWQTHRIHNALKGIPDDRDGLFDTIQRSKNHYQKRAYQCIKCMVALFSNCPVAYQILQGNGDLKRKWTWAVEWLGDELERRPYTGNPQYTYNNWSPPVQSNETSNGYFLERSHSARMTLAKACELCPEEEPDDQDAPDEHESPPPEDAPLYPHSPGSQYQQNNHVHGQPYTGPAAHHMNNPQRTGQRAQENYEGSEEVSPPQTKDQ
T4 sequence (Q96DC9 whole entry): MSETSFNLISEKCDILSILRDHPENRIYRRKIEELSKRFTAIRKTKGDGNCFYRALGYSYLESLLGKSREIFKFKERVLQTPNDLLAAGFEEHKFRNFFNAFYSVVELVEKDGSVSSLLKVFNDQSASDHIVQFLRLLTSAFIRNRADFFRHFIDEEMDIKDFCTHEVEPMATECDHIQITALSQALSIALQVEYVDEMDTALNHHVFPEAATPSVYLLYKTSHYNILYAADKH
T1 sequence (Q92560 whole entry): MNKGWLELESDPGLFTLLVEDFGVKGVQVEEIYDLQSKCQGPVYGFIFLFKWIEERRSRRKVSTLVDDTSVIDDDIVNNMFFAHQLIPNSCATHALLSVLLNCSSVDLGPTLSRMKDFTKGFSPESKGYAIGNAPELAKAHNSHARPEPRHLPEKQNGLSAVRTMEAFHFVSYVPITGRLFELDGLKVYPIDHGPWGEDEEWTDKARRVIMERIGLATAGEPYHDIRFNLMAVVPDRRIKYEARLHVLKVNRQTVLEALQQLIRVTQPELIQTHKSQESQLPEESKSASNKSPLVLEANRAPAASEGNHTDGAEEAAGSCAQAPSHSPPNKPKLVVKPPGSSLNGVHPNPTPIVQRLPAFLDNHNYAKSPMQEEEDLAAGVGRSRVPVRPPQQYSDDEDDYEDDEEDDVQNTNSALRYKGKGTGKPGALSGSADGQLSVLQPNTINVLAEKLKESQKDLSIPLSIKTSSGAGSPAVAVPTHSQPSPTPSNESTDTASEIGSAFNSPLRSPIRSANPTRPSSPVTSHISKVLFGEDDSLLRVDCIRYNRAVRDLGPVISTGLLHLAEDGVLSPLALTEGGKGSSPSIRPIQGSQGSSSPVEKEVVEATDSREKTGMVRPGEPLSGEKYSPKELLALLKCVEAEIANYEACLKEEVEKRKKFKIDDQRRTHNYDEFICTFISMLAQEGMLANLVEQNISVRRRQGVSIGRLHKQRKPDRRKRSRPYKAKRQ
T3 sequence (P54578 whole entry): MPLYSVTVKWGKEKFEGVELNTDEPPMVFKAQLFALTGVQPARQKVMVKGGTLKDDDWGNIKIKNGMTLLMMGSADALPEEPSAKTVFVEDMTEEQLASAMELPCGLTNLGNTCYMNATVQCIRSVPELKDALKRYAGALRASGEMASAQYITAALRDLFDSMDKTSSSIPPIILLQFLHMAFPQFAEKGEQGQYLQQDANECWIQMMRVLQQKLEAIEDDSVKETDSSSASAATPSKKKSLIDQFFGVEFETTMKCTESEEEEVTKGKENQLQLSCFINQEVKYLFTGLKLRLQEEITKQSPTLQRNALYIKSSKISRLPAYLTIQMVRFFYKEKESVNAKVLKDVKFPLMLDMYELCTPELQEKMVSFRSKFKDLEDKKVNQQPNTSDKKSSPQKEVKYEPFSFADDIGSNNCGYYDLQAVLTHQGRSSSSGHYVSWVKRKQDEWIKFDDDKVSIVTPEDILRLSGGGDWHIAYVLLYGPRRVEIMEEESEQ

For the compound `O=C(NC1C2CNCC21)c1nn(C(=O)c2c(Cl)cccc2Cl)cc1NC(=O)c1c(Cl)cccc1Cl` (centres unmarked) [FX-171-C], the remaining activity at 0.013 µM on HsBRISCΔLoop (Δ184–208) (HsBRISCΔLoop, FX-171-C 0.013 μM, read-out: Normalised V0) worked out at 87.6%. At HsBRISCΔLoop (Δ184–208) (HsBRISCΔLoop, FX-171-C 0.02 μM, read-out: Normalised V0), the remaining activity at 0.02 µM is 103%. Further, the remaining activity at 0.0399999 µM at HsBRISCΔLoop (Δ184–208) (HsBRISCΔLoop, FX-171-C 0.0399999 μM, read-out: Normalised V0) was determined as 90.4%. The remaining activity at 0.0599997 µM on HsBRISCΔLoop (Δ184–208) (HsBRISCΔLoop, FX-171-C 0.0599997 μM, read-out: Normalised V0) was determined as 102%. For the same compound, at HsBRISCΔLoop (Δ184–208) (HsBRISCΔLoop, FX-171-C 0.0799994 μM, read-out: Normalised V0), the remaining activity at 0.0799994 µM is 93.6%. Further, the remaining activity at 0.119998 µM at HsBRISCΔLoop (Δ184–208) (HsBRISCΔLoop, FX-171-C 0.119998 μM, read-out: Normalised V0) is 102%. Further, the remaining activity at 0.199996 µM at HsBRISCΔLoop (Δ184–208) (HsBRISCΔLoop, FX-171-C 0.199996 μM, read-out: Normalised V0) came to 84.1%. Besides, on HsBRISCΔLoop (Δ184–208) (HsBRISCΔLoop, FX-171-C 0.499975 μM, read-out: Normalised V0), the remaining activity at 0.499975 µM was determined as 99%. Moreover, at HsBRISCΔLoop (Δ184–208) (HsBRISCΔLoop, FX-171-C 0.799937 μM, read-out: Normalised V0), the remaining activity at 0.799937 µM came out at 98.4%. Further, the remaining activity at 1.25984 µM on HsBRISCΔLoop (Δ184–208) (HsBRISCΔLoop, FX-171-C 1.25984 μM, read-out: Normalised V0) was 86.2%. Also, the remaining activity at 1.9996 µM at HsBRISCΔLoop (Δ184–208) (HsBRISCΔLoop, FX-171-C 1.9996 μM, read-out: Normalised V0) is 93.3%. Further, on HsBRISCΔLoop (Δ184–208) (HsBRISCΔLoop, FX-171-C 3.159 μM, read-out: Normalised V0), the remaining activity at 3.159 µM stood at 82%. Also, at HsBRISCΔLoop (Δ184–208) (HsBRISCΔLoop, FX-171-C 5.19739 μM, read-out: Normalised V0), the remaining activity at 5.19739 µM turned out to be 89%. On HsBRISCΔLoop (Δ184–208) (HsBRISCΔLoop, FX-171-C 7.99364 μM, read-out: Normalised V0), the remaining activity at 7.99364 µM worked out at 69.7%. The remaining activity at 12.7839 µM at HsBRISCΔLoop (Δ184–208) (HsBRISCΔLoop, FX-171-C 12.7839 μM, read-out: Normalised V0) turned out to be 65.1%. Further, on HsBRISCΔLoop (Δ184–208) (HsBRISCΔLoop, FX-171-C 19.96 μM, read-out: Normalised V0), the remaining activity at 19.96 µM turned out to be 50.7%. Moreover, the remaining activity at 31.4999 µM at HsBRISCΔLoop (Δ184–208) (HsBRISCΔLoop, FX-171-C 31.4999 μM, read-out: Normalised V0) was determined as 45.4%. On HsBRISCΔLoop (Δ184–208) (HsBRISCΔLoop, FX-171-C 50.147 μM, read-out: Normalised V0), the remaining activity at 50.147 µM stood at 24.3%. Moreover, the remaining activity at 79.7601 µM at HsBRISCΔLoop (Δ184–208) (HsBRISCΔLoop, FX-171-C 79.7601 μM, read-out: Normalised V0) is 18.2%. Further, on HsBRISCΔLoop (Δ184–208) (vs human BRISC), the “change of inhibitor sensitivity on deletion of BRCC36 loop (184–208)” value was “reduced inhibitor sensitivity approximately tenfold”. Further, the remaining activity at 0.35 µM on BRISC BRCC36 R167A+L169A (FX-171-C 0.35 μM) amounted to 98.6%; at BRISC BRCC36 L169W (FX-171-C 0.35 μM, read-out: Normalised V0) it was 94%. For the same compound, the remaining activity at 25 µM on BRISC BRCC36 R167A+L169A (FX-171-C 25 μM) was 85.6%; at BRISC BRCC36 L169W (FX-171-C 25 μM, read-out: Normalised V0), 93.8%. Moreover, the results for the IC50 against BRISC BRCC36 L169W and at BRISC BRCC45 R137A+F140A were 91 µM and 52 µM, respectively. Moreover, the “reduction of inhibition over wild-type complex” value on BRISC BRCC36 L169W was above 100 fold. Moreover, the remaining activity at 0.0035 µM at BRISC BRCC36 L169W (FX-171-C 0.0035 μM, read-out: Normalised V0) was 94%. The remaining activity at 0.035 µM was 91.9% at BRISC BRCC36 L169W (setting [5]) and 79.9% on BRISC BRCC45 R137A+F140A (setting [5]). Also, the remaining activity at 3.1 µM at BRISC BRCC36 L169W (FX-171-C 3.1 μM, read-out: Normalised V0) stood at 93.5%. Besides, the remaining activity at 6.25 µM on BRISC BRCC36 L169W (FX-171-C 6.25 μM, read-out: Normalised V0) came out at 90.3%. The remaining activity at 12.5 µM on BRISC BRCC36 L169W (FX-171-C 12.5 μM, read-out: Normalised V0) was found to be 89.8%. Besides, the remaining activity at 50 µM at BRISC BRCC36 L169W (FX-171-C 50 μM, read-out: Normalised V0) is 84.8%.

Turning to `O=C(NC1CCNCC1)c1nn(C(=O)c2c(Cl)cccc2Cl)cc1NC(=O)c1c(Cl)cccc1Cl` [JMS-175-2], the “Activity (% control)” value in assay [1] was 92 % control and 96 % control; in assay [2], 103 % control and 98 % control; in assay [3], 85 % control and 95 % control; in assay [4], 97 % control and 96 % control.
